Data: patent US20180353445A1, “METHODS AND COMPOSITIONS RELATING TO PROTEASOME INHIBITOR RESISTANCE” (Whitehead Institute for Biomedical Research, priority 2017, published 2018)
Residues, ends and D or L forms follow the SMILES beside them. *: point of attachment. Cbz = O=C(OCc1ccccc1)*

Assays:
T47D cells [1] = experiment: Cell viability, T47D cells with doxycycline-inducible PSMD2 shRNA (KD) vs control; assay type: cell-based, human; details: doxycycline-regulated PSMD2 shRNA
Description: FIGS. 37A-37E: Subunit suppression results in highly specific drug sensitivity alteration. Schematic representation of the drug screen setup. (FIG. 37A) 147D cells harboring a doxycycline-inducible PSMD2 shRNA were grown in the presence or absence of doxycycline for 48 hr. Cells were then collected, washed, and plated in the absence of doxycycline for 24 hr prior to exposure different compounds. Relative cell numbers were measured 3 days later. […] (FIGS. 37C-37E) The relative viability of the PSMD2 knockdown (KD) versus the control was calculated for replica experiments and the log2 of the ratio is plotted for 349 compounds from the Selleck anti-cancer L3000 drug library that were tested in 4 concentrations (FIG. 37C), the Selleck natural product library (NPC) comprising 502 compounds in 5 doses (FIG. 37D), and the NIH bioactive compound library that includes 731 compounds in 4 doses (FIG. 37E). Specific compounds are annotated.
The effect of transient PSMD2 reduction on growth of T47D cells in the presence of different proteasome inhibitors (bortezomib, MLN9708, carfilzomib, oprozornib) was tested. T47D cells harboring a doxycycline inducible control shRNA (GFP) or a doxycycline-inducible PSMD2 shRNA (TurhoRFP) were incubated with doxycycline for 3 days. Cells were then split and grown in the absence of Dox and proteasome inhibitors were then added at various concentrations. Cells were maintained in culture and then counted.
For the generation of the T47D Tet-inducible PSMD2 knockdown cell line- the TRIPZ vector with an inducible shRNA targeting PSMD2 was purchased from Dhannacon (clone V3THS_403760). It was introduced to the T47D cells according to manufactures protocol and cells were selected with puromycin 1 μg/ml for one week. The cells were exposed to doxycycline for 24 hours and cells were FACS sorted for the top 10% of most RFP expressing cells (highest expression of shRNA). The cells were further cultured in the absence of doxycycline and PSMD2 knockdown was induced as specified in the relevant Examples. The TRIPZ control GFP vector was created by removing the turboRFP from the TRIPZ control vector by digestion with Agel and ClaI and replacing it with GFP amplified with primers flanking with Agel and Clal restriction sites.
Cell Viability Assay—Relative cell growth and survival were measured in 96-well microplate format in the shRNA experiments and in 384 well format in the drug toxicity assays, by using the fluorescent detection of resazurin dye reduction as an endpoint (544 nm excitation and 590 run emission). 2,500 cells in 96 wells format or 1,000 cells in 384 well format were plated 24 hours before compound exposure (for 72 hours or indicated time). Each analysis was performed at least with three replicas.

Saccharomyces cerevisiae = experiment: Yeast MG132 sensitivity assay, proteasome subunit DAmP strains; assay type: cell-based; details: five of twelve strains, 50 μM
Description: FIG. 7: Reducing the levels of 19S subunits is an evolutionarily conserved mechanism to acquire resistance to proteasome inhibition.
As the 19S regulatory complex components are essential for viability in yeast, we utilized a library of hypomorphic (DAmP) alleles for essential yeast genes. In this library, the expression of individual mRNA. species is reduced from two to ten-fold by replacing the mRNA's 3′ untranslated region (Breslow et al., 2008).
Yeast cells were grown over night in media containing L-proline as nitrogen source instead of ammonium sulfate. The overnight cultures were diluted into OD 0.1 and were grown in the L-proline culture with 0.003% SDS with or without 50 μM MG-132. OD was measured over the period of 48 hours.

cancer cell lines (GDSC) = experiment: Genomics of Drug Sensitivity in Cancer (GDSC) data analysis, IC50 of bortezomib and MG132 vs 19S expression / sigma score; assay type: cell-based, human; details: GDSC database
Description: In some aspects, whether a cancer cell is considered resistant or sensitive to a particular agent may be determined by comparing the IC50 of the agent for the cancer cell with the IC50 of the agent as measured for each cell line in a panel of diverse cancer cell lines. Cancer cells for which the agent has an IC50 in the 10th percentile of IC50 values determined for the agent on a diverse panel of cancer cell lines may be considered sensitive, while cancer cells for which the agent has an IC50 in the 90th percentile of IC50 values determined for the agent on a diverse panel of cancer cell lines may be considered resistant to the agent.
We asked if this might correlate with changes in 19S subunit expression. We analyzed the Genomics of Drug Sensitivity in Cancer (GDSC) database, a public resource of transcriptional data and drug responsiveness collected from a spectrum of human cancer cell lines with diverse tissue origins and diverse oncogenic lesions (Garnett et al., 2012). […]
Further details of methods used in GDSC dataset analysis: Gene expression and drug sensitivity data was downloaded from the World Wide Web at subdomain cancerrxgene.org. […] For each proteasomal subunit gene, a-score was calculated for each cell line. […] P-values were calculated by t-test, comparing the logEC50s between the 3 sigma and not 3 sigma.

cancer cells = experiment: Cell viability, elesclomol and elesclomol analogs (cell titer-glo); assay type: cell-based; details: substitution of oxygen for sulfur group(s)
Text: In addition to the intrinsic sensitivity of certain cancer cells to elesclomol, as our drug screen indicated, the sensitivity of cancer cells to elesclomol can be further enhanced by forcing them into a Hi-OXPHOS state.
We examined several elesclomol analogs (FIG. 57B) to determine the structural features that are important for mediating its cytotoxicity. […] Substitution of oxygen for even one of the sulfur groups (compound-5) reduced the activity of elesclomol by 300 fold. The loss of activity was even more pronounced (>>300 fold) when both sulfurs were substituted (compound-6) (FIGS. 51C-51D, FIG. 57C). Various other modifications to the elesclomol scaffold were tolerated, as long as the core sulfur geometry remained intact.
(§1) Cell viability—where indicated relative cell number following different drug treatment was conducted by plating cells at 1000 cells/well in 384 well plates. Indicated concentrations of compounds were added 24 hour after plating at least in triplicate for each condition. Viability was measured 72 hours after drug addition using cell titer-glo (Promega) according to manufactures protocol. […]

MCF7 and HEK293 cells = experiment: Cell viability with glucose or galactose as the carbon source; assay type: cell-based, human; details: 10 mM glucose or 10 mM galactose
Description: Cells were treated with increasing concentrations of elesclomol in the presence of either Glucose or Galactose as the carbon source (FIG. 40A). The presence of Galactose will induce a mitochondrial dependent metabolism (FIGS. 40B-40C, Gohil et al., Nature Biotechnology 28, 249-255 (2010)).
The sensitivity of cells to different chemical isoforms of elesclomol was also assessed. […] Removing even one substantially impairs the ability of the molecule to induce toxicity (FIG. 41B).
Cell culture methods—147D, Lo19S T47D, K562 and 293T-HS cells were cultured in RPMI-1640 medium supplemented with 10% fetal bovine serum; HEK293, HEK293T and MCF-7 cells were cultured in Dulbecco's modified Eagle's medium supplemented with 10% fetal bovine serum. For the glucose, galactose experiments media lacking glucose was supplemented with dialyzed serum and either 10 mM Glucose or 10 mM galactose.
as §1

T47D cells [2] = experiment: The glucose/galactose drug screen; assay type: cell-based, human; details: 10 mM Glucose or Galactose, Selleck anti cancer and natural product libraries

Molecule: CC(C)C[C@@H](C=O)NC(=O)[C@H](CC(C)C)NC(=O)[C@H](CC(C)C)NC(=O)OCc1ccccc1 [MG132, N-(benzyloxycathonyl)leucinylieucinylieucinal] (Cbz-Leu-Leu-Leu-aldehyde)
- resistance after transient reduction of PSMD2 (T47D cells [1]): significantly increased resistance
- resistance of 19S DAmP yeast strains to proteasome inhibition (Saccharomyces cerevisiae): significantly increased resistance
- average IC50 value in 3-Sigma cell lines vs all other lines (cancer cell lines (GDSC)): considerably higher

Molecule: CN(NC(=O)CC(=O)NN(C)C(=S)c1ccccc1)C(=O)c1ccccc1 [compound-5]
- reduction of activity relative to elesclomol (cancer cells): 300 fold

Molecule: antimycin A
- sensitivity of cells in galactose (mitochondrial metabolism, Hi-OXPHOS) versus glucose (glycolytic) (MCF7 and HEK293 cells): This phenomenon is observed
- relative viability change of cells grown in glucose versus galactose (T47D cells [2]): increased sensitivity
